The results in this text go back to patent US7674823B2, “DNA-PK inhibitors” (Cancer Research Technology Limited, priority 2001, dated 2010).

The target of data set [1] is T1, Mammalian DNA-PK, isolated from Hela cell nuclear extract (Homo sapiens, UniProt P78527).
T1 construct: Mammalian DNA-PK, isolated from Hela cell nuclear extract; endogenous in cells; host or cells: HeLa cell nuclear extract (purified per Gell and Jackson 1999)
The experiment in a line: DNA-PK inhibition assay (33P-ATP, filter binding). It is filed as biochemical. As to the method: In order to assess the inhibitory action of the compounds against DNA-PK in vitro, the following assay was used to determine IC50 values.
The total assay volume per well was 40 μl.
After 10 minutes of incubation at 30° C. the reactions were initiated by the addition of Na-ATP (50 μM final), ^33p-γATP and a 30mer double stranded DNA oligonucleotide (10 ng/μl) in a volume of 10 μl. Designated positive and negative reaction wells were done in combination with compound wells (unknowns) in order to calculate % enzyme activities. The plates were then shaken for 2 minutes and incubated at 30° C. for 45 minutes.
Following the incubation, the reactions were quenched by the addition of 50 μl 30% acetic acid to each well. The plates were then shaken for 5 minutes and the contents of each plate (80 μl from each well) transferred over to a 96 well Polyfiltronics filtration plate, containing P81-phosphocellulose membrane (TRADE MARK)(Whatman, UK). The solutions were vacuum pumped through the membrane and each well membrane washed four times using 300 μl of 15% acetic acid. The well membranes were then air dried and 20 μl of scintillant was added to each well.
The plates were transferred to a TopCount NXT (TRADE MARK) (Packard, UK) for scintillation counting. Values recorded are counts per minute (cpm) following a 1 minute counting time for each well.
The enzyme activity for each compound is then calculated using the following equation: […]
These are determined over a range of different concentrations, normally from 10 μM down to 0.01 μM. Such IC50 values are used as comparative values to identify increased compound potencies.

Data set [2] deals with T2, ATM protein (Homo sapiens, UniProt Q13315).
T2 construct: ATM protein was immunoprecipitated from HeLa cell nuclear extract; endogenous in cells; host or cells: HeLa cell nuclear extract (immunoprecipitate)
The data set can be described thus: ATM inhibition assay (immunoprecipitated ATM, GSTp53N66 substrate). It counts as biochemical. As to the method: (§1) In order to assess the inhibitory action of the compounds against ATM in vitro, the following assay was used to determine IC50 values.
(§2) ATM protein was immunoprecipitated from HeLa cell nuclear extract using rabbit polyclonal antisera raised to the C-terminal ˜500 amino-acid residues of the human ATM protein. The immunoprecipitation was performed according to the methodology described by Banin, S. et al. (1998) Enhanced phosphorylation of p53 by ATM in response to DNA damage. Science 281:1674-1677. 10 μl of immunoprecipitated ATM in Buffer C (50 mM Hepes, pH 7.4, 6 mM MgCl2, 150 mM NaCl, 0.1 mM sodium orthovanadate, 4 mM MnCl2, 0.1 mM dithiothreitol, 10% glycerol) was added to 32.5 μl of buffer C containing 1 μg of the ATM substrate GSTp53N66 in a V-bottomed 96 well polypropylene plate. The GSTp53N66 substrate is the amino terminal 66 amino acid residues of human wild type p53 fused to glutathione S-transferase. ATM phosphorylates p53 on the residue serine 15 (Banin, S. et al. (1998) Enhanced phosphorylation of p53 by ATM in response to DNA damage. Science 281:1674-1677). Varying concentrations of inhibitor were then added. […] After 10 minutes of incubation at 37° C., the reactions were initiated by the addition of 5 μl of 50 μM Na-ATP. After 1 h with shaking at 37° C., 150 μl of phosphate buffered saline (PBS) was added to the reaction and the plate centrifuged at 1500 rpm for 10 minutes. 5 μl of the reaction was then transferred to a 96 well opaque white plate containing 45 μl of PBS to allow the GSTp53N66 substrate to bind to the plate wells. The plate was covered and incubated at room temperature for 1 h with shaking before discarding the contents. The plate wells were washed twice by the addition of PBS prior to the addition of 3% (w/v) bovine serum albumin (BSA) in PBS. The plate was incubated at room temperature for 1 h with shaking before discarding the contents and washing twice with PBS. To the wells, 50 μl of a 1:10,000 dilution of primary phosphoserine-15 antibody (Cell Signaling Technology, #9284L) in 3% BSA/PBS was added to detect the phosphorylation event on the serine 15 residue of p53 elicited by the ATM kinase. After 1 h of incubation at room temperature with shaking, the wells were washed four times with PBS prior to the addition of an anti-rabbit HRP conjugated secondary antibody (Pierce, 31462) with shaking for 1 h at room temperature. The wells were then washed four times with PBS before the addition of chemiluminescence reagent (NEN Renaissance, NEL105). The plate was then shaken briefly, covered with a transparent plate seal and transferred to a TopCount NXT for chemiluminescent counting. Counts per second, following a one second counting time, were recorded for each reaction. The inhibition of ATM activity by compounds was calculated as described above for the DNA-PK assay.
(§3) The selectivity was determined by the following equation: […]

Data set [3] has as its system ATM protein. The description is as above. It is filed as biochemical, human. Conditions: selectivity ratio from the IC50s for ATM and DNA-PK. The protocol: as §1, §2, §3
The subject of data set [4] is PI 3-kinase (p110α/p85α). The experiment in a line: PI 3-kinase inhibition assay. It counts as biochemical. As to conditions: selectivity ratio from the IC50s for PI 3-kinase and DNA-PK.
Source text: (§4) In order to assess the inhibitory action of the compounds against PI 3-kinase in vitro, the following assay was used to determine IC50 values.
(§5) Baculoviral recombinant GST-fused PI 3-kinase (p110α/p85α) was purified from Sf9 insect cells using GSH-sepharose affinity chromatography as described (Wymann, M. T et al., (1996) Wortmannin inactivates phosphoinositide 3-kinase by covalent modification of Lys-802, a residue involved in the phosphate transfer reaction. Mol. Cell Biol. 16:1722-1733). PI 3-kinase (1 μl) was diluted in reaction buffer (89 μl of 50 mM Hepes pH 7.5, 150 mM NaCl, 0.1 mM Sodium Orthovanadate, containing 20 μg of phosphatidylinositol) and varying concentrations of inhibitor compound added. […] Reactions were incubated for a further 20 minutes at 37° C., before quenching with the addition of 400 μl of chloroform/methanol (1:1). Reactions were acidified by the addition of 200 μl of 1M HCl, before separation of the organic and aqueous phases by centrifugation at 10,000 g for 30 seconds. The organic phase was transferred to a fresh tube and washed twice with 150 μl of 1M hydrochloric acid/methanol (1:1), discarding the aqueous phase. The washed reaction product was then placed in a white 96-well plate with 100 μl of scintillation fluid and transferred to a TopCount NXT for scintillation counting. Counts per minute, following a one minute counting time, were recorded for each reaction. The inhibition of PI 3-kinase activity by compounds was calculated as described above for the DNA-PK assay.
as §3

Data set [5] deals with T3, PI 3-kinase (p110α/p85α) (UniProt P32871).
T3 construct: other: GST-fused p110α/p85α
The data set can be described thus: PI 3-kinase inhibition assay. It is filed as biochemical. Conditions: GST-fused p110α/p85α.
Source text: as §4, §5, §3

[6] abbreviates: IC50 of less than about 1 μM and/or % inhibition of more than about 50 at 1 μM, read-out: DNA-PK inhibition IC50 (particular efficacy).
The mark [7] stands for this setting: concentration at which 50% of the enzyme activity is inhibited, read-out: DNA-PK Inhibition IC50.

Read-outs that look alike come from different tables or passages of the source.

T2 sequence (Q13315 whole entry): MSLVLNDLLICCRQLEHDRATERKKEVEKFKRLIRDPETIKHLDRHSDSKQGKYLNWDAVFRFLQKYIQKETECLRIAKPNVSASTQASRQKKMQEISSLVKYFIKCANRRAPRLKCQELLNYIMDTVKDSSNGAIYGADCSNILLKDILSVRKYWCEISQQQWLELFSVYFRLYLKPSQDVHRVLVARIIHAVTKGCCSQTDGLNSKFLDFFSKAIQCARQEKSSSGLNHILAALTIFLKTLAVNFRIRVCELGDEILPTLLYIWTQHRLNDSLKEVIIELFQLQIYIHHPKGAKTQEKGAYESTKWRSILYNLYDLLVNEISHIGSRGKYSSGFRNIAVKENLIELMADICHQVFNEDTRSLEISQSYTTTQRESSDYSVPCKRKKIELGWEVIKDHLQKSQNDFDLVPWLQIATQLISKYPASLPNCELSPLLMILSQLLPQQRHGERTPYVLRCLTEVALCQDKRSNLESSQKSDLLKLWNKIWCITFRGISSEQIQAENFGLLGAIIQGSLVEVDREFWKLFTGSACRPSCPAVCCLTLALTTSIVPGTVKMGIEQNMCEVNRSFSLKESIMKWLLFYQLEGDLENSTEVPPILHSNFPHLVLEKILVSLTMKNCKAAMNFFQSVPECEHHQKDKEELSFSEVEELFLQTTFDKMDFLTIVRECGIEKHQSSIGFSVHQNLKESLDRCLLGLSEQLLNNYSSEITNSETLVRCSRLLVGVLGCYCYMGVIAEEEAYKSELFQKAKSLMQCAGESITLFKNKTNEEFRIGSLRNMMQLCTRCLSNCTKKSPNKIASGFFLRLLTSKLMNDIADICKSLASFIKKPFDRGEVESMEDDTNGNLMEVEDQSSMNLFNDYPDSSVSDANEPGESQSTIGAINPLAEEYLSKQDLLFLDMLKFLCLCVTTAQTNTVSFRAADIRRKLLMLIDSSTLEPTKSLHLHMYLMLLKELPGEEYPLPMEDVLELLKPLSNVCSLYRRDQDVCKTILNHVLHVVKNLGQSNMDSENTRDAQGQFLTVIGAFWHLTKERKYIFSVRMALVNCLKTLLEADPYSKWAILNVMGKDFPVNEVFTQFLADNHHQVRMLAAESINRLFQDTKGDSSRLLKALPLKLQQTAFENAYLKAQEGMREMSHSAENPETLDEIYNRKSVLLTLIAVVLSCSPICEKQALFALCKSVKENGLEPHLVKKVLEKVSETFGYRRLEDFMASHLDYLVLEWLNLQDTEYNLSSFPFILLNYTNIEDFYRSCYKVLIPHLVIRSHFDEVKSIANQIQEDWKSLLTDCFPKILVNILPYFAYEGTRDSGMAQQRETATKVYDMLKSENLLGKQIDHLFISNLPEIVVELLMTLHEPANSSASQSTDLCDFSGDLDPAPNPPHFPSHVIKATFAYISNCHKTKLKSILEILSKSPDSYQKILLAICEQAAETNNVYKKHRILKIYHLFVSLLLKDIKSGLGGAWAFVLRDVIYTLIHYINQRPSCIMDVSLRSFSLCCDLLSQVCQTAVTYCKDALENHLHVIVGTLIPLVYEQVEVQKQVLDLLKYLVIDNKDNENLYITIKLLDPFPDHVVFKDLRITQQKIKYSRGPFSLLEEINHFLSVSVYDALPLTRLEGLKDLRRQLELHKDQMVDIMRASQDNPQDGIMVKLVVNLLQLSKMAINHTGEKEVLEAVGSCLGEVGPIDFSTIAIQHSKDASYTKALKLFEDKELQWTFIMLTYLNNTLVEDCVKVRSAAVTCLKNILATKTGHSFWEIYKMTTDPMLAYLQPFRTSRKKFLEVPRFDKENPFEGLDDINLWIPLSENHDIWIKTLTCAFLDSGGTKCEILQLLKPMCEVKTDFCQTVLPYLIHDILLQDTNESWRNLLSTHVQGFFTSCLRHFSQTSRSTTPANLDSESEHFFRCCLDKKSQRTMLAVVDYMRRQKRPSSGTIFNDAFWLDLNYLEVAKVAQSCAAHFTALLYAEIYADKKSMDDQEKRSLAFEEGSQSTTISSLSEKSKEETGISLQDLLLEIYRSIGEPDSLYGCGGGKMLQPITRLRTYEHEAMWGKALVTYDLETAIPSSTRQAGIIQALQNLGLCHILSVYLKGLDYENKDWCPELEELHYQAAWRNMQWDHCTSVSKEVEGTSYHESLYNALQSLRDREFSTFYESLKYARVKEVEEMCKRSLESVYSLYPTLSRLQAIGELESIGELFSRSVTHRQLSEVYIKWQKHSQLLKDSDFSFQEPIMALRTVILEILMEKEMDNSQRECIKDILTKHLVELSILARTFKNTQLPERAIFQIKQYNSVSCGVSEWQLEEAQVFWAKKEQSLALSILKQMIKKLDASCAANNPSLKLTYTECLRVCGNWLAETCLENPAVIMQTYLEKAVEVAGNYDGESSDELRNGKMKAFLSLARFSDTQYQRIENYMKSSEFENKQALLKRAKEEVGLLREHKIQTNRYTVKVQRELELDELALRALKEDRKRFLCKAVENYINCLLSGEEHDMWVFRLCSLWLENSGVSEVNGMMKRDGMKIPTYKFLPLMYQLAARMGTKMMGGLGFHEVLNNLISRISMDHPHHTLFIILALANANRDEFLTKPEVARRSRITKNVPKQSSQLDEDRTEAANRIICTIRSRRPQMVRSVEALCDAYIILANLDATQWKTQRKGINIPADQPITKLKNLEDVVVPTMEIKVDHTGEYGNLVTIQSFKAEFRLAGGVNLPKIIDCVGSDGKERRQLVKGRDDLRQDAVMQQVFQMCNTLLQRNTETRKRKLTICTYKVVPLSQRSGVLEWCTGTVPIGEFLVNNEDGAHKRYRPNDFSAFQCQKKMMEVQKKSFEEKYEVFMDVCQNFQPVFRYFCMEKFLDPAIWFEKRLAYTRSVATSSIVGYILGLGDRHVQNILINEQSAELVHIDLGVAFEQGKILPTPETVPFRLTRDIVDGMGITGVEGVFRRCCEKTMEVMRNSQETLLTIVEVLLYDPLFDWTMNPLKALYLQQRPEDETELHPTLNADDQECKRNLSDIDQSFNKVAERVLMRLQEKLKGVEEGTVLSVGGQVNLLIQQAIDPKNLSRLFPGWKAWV

In general, IC50 refers to the concentration that inhibits the measured activity by half. A word on the melting point: it is the temperature of the solid-liquid transition. In the case of `O=c1cc(N2CCSCC2)nc2c3ccccc3ccn12` [Compound 6, 2-Thiomorpholin-4-yl-pyrimido[2,1-a]isoquinolin-4-one], the melting point lay within 240 to 242 °C. The IC50 in data set [1] (setting [6]) is less than 1000 nM. Moreover, the IC50 in data set [1] (setting [7]) worked out at 5000 nM.
`C[C@@H]1CN(c2cc(=O)n3ccc4ccccc4c3n2)C[C@H](C)O1` [Compound 13, 2-((2S,6R)-2,6-Dimethyl-morpholin-4-yl)-pyrimido[2,1-a]isoquinolin-4-one]: the melting point was in the range of 208 to 209 °C. The IC50 in data set [1] (setting [7]) was 8000 nM.
Take `O=c1cc(-c2ccc(Cl)cc2)oc(N2CCOCC2)c1` [Compound 284, 2-(4-chlorophenyl)-6-(morpholin-4-yl)-pyran-4-one]: at ATM protein [2], the IC50 was greater than 100 µM. Besides, the “Δ(DNA-PK/ATM)” value in the data set on ATM protein [3] is reported as greater than 286.
The compound `O=c1cc(-c2ccccc2)oc(N2CCOCC2)c1` [Compound 285, 2-(morpholin-4-yl)-6-phenyl-pyran-4-one] came in with a melting point of 148 to 150 °C. At ATM protein [2], this compound came in with an IC50 greater than 50 µM. The “Δ(DNA-PK/ATM)” value in the data set on ATM protein [3] is greater than 63. Further, the “Δ(DNA-PK/PI 3-K)” value in the data set on PI 3-kinase (p110α/p85α) [4] was determined as 38. The compound also registered an IC50 against PI 3-kinase (p110α/p85α) [5] of 30 µM.
`COc1ccccc1-c1cc(=O)cc(N2CCOCC2)o1` [Compound 286, 2-(2-methoxyphenyl)-6-(morpholin-4-yl)-pyran-4-one] returned a melting point of 125 to 127 °C. Also, on ATM protein [2], the IC50 amounted to 24 µM. The “Δ(DNA-PK/ATM)” value in the data set with ATM protein [3] came to 80.
Regarding `COc1cccc(-c2cc(=O)cc(N3CCOCC3)o2)c1` [Compound 287, 2-(3-methoxyphenyl)-6-(morpholin-4-yl)-pyran-4-one], the melting point was in the range of 115 to 117 °C. At ATM protein [2], this compound displayed an IC50 greater than 50 µM. Moreover, the “Δ(DNA-PK/ATM)” value in the data set with ATM protein [3] is greater than 125.
With `COc1ccc(-c2cc(=O)cc(N3CCOCC3)o2)cc1` [Compound 288, 2-(4-Methoxyphenyl)-6-(morpholin-4-yl)-pyran-4-one], the IC50 on ATM protein [2] is greater than 100 µM; against PI 3-kinase (p110α/p85α) [5], 15 µM. The “Δ(DNA-PK/ATM)” value in the data set on ATM protein [3] is reported as greater than 286. In addition, the “Δ(DNA-PK/PI 3-K)” value in the data set with PI 3-kinase (p110α/p85α) [4] is 43.
Compound `CC(C)(C)c1ccc(-c2cc(=O)cc(N3CCOCC3)o2)cc1` [Compound 289, 2-(4-tert-butyl-phenyl)-6-(morpholin-4-yl)-pyran-4-one] returned a melting point of 156 °C. The compound also showed an IC50 against ATM protein [2] greater than 50 µM. Also, the “Δ(DNA-PK/ATM)” value in the data set with ATM protein [3] was greater than 111. Also, the “Δ(DNA-PK/PI 3-K)” value in the data set on PI 3-kinase (p110α/p85α) [4] is reported as 82. The compound also showed an IC50 at PI 3-kinase (p110α/p85α) [5] of 37 µM.
The compound `O=c1cc(-c2cccc(F)c2)oc(N2CCOCC2)c1` [Compound 291, 6-(3-fluorophenyl)-2-(morpholin-4-yl)pyran-4-one] registered a melting point of 169 to 170 °C. The IC50 on ATM protein [2] is greater than 50 µM. Besides, in the data set with ATM protein [3], the “Δ(DNA-PK/ATM)” value is recorded as greater than 167.
Compound `O=c1cc(N2CCOCC2)oc2c(-c3ccccc3)cccc12` [Compound 294, 8-Phenyl-2-(morpholin-4-yl)-chromen-4-one] returned an IC50 against ATM protein [2] greater than 100 µM. For the same compound, the “Δ(DNA-PK/ATM)” value with ATM protein [3] is listed as greater than 67. Moreover, the “Δ(DNA-PK/PI 3-K)” value with PI 3-kinase (p110α/p85α) [4] was 1.
Regarding `O=c1cc(N2CCOCC2)oc2cc(O)ccc12` [Compound 307, 7-hydroxy-2-(morpholin-4-yl)-chromen-4-one], the figures for the IC50 (in data set [1] (setting [7]); against ATM protein [2]) were 900 nM and greater than 100 µM, respectively. For the same compound, the “Δ(DNA-PK/ATM)” value with ATM protein [3] is recorded as greater than 111.
With `O=c1cc(N2CCOCC2)oc2ccc3ccccc3c12` [Compound 310, 2-morpholin-4-yl-benzo[f]chromen-4-one], the IC50 against ATM protein [2] is greater than 100 µM; against PI 3-kinase (p110α/p85α) [5], 11 µM. The “Δ(DNA-PK/ATM)” value in the data set with ATM protein [3] was greater than 1000. In addition, the “Δ(DNA-PK/PI 3-K)” value with PI 3-kinase (p110α/p85α) [4] is given as 110.
The compound `O=c1cc(N2CCCC(CO)C2)oc2c1ccc1ccccc12` (stereo not shown) [Compound 313, 2-(3-Hydroxymethyl-piperidin-1-yl)-benzo[h]chromen-4-one] displayed a melting point of 209 to 210 °C.
For the compound `CN1CCN(c2cc(=O)c3ccc4ccccc4c3o2)CC1` [Compound 314, 2-(4-Methyl-piperazin-1-yl)-benzo[h]chromen-4-one], the melting point lay within 184 to 185 °C.
Same read-out and setting: as for `O=c1cc(NCC2CCCO2)oc2c1ccc1ccccc12` (stereo not shown) [Compound 316, 2-[(Tetrahydrofuran-2-ylmethyl)-amino]-benzo[h]chromen-4-one], the figure is 139 to 140 °C; as for `O=c1cc(N2CCOCC2)oc2cc(OCc3ccccc3Cl)ccc12` [Compound 417, 7-(2-Chlorobenzyloxy)-2-morpholin-4-yl-chromen-4-one], 167 to 168 °C.
`O=c1cc(N2CCOCC2)oc2cc(OCc3ccc4ccccc4c3)ccc12` [Compound 418, 7-(Naphthalen-2-ylmethoxy)-2-morpholin-4-yl-chromen-4-one] registered a melting point of 263 to 264 °C. Moreover, the IC50 in data set [1] (setting [6]) was less than 1000 nM. For the same compound, the IC50 in data set [1] (setting [7]) was 450 nM. On ATM protein [2], the IC50 was greater than 100 µM. In addition, the “Δ(DNA-PK/ATM)” value in the data set with ATM protein [3] is on record as greater than 222.
The compound `O=c1cc(N2CCOCC2)oc2cc(OCC3CCCCC3)ccc12` [Compound 419, 7-Cyclohexylmethoxy-2-(morpholin-4-yl)-chromen-4-one] yielded a melting point of 187 to 188 °C. The IC50 in data set [1] (setting [7]) came to 1000 nM.
Turning to `O=C(Oc1ccc2c(=O)cc(N3CCOCC3)oc2c1)c1ccccc1` [Compound 423, 7-Benzoyloxy-2-(morpholin-4-yl)-chromen-4-one], the melting point was in the range of 204 to 206 °C. Also, the IC50 in data set [1] (setting [7]) worked out at 3000 nM. This compound gave an IC50 at ATM protein [2] greater than 100 µM. For the same compound, the “Δ(DNA-PK/ATM)” value in the data set on ATM protein [3] is recorded as greater than 33.
